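Each compound was tested at five concentrations against cells in 96-well plates for 48 hours. TGI marks complete inhibition of growth.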
Key:
Assay in all cases: NCI-60 cell line screen, 48 h
NCI-H23 lung = test system: NCI-H23 lung
TK-10 renal = test system: TK-10 renal
BT-549 breast = test system: BT-549 breast
A549 NSCLC = test system: A549 NSCLC
SK-MEL-28 melanoma = test system: SK-MEL-28 melanoma
SF-539 CNS = test system: SF-539 CNS
MDA-MB-435 = test system: MDA-MB-435
NCI-H460 lung = test system: NCI-H460 lung
RXF 393 renal = test system: RXF 393 renal
SK-OV-3 ovarian = test system: SK-OV-3 ovarian
EKVX NSCLC = test system: EKVX NSCLC
HOP-62 NSCLC = test system: HOP-62 NSCLC
SR leukemia = test system: SR leukemia
UO-31 renal = test system: UO-31 renal
MOLT-4 leukemia = test system: MOLT-4 leukemia
IGROV1 ovarian = test system: IGROV1 ovarian
SK-MEL-5 melanoma = test system: SK-MEL-5 melanoma
MDA-N = test system: MDA-N
A498 renal = test system: A498 renal
MALME-3M melanoma = test system: MALME-3M melanoma

SMILES | TGI (NCI-H23 lung) [µM] | TGI (TK-10 renal) [µM] | TGI (BT-549 breast) [µM] | TGI (A549 NSCLC) [µM] | TGI (SK-MEL-28 melanoma) [µM] | TGI (SF-539 CNS) [µM] | TGI (MDA-MB-435) [µM] | TGI (NCI-H460 lung) [µM] | TGI (RXF 393 renal) [µM] | TGI (SK-OV-3 ovarian) [µM] | TGI (EKVX NSCLC) [µM] | TGI (HOP-62 NSCLC) [µM] | TGI (SR leukemia) [µM] | TGI (UO-31 renal) [µM] | TGI (MOLT-4 leukemia) [µM] | TGI (IGROV1 ovarian) [µM] | TGI (SK-MEL-5 melanoma) [µM] | TGI (MDA-N) [µM] | TGI (A498 renal) [µM] | TGI (MALME-3M melanoma) [µM]
C(=C\c1ccccc1)/Cn1nc(-c2ccccc2)nc1-c1cnccn1 | > 100 | > 100 | > 100 | > 100 | > 100 | > 100 | > 100 | > 100 | > 100 | > 100 | > 100 | > 100 | > 100 | > 100 | > 100 | > 100 | > 100 | > 100 | – | –
CCOC(=O)Nn1cnnc1Cc1ccccc1 | > 100 | > 100 | > 100 | > 100 | – | > 100 | > 100 | > 100 | – | > 100 | > 100 | > 100 | > 100 | > 100 | > 100 | > 100 | > 100 | > 100 | > 100 | > 100
O=c1oc2ccccc2cc1-c1nc2ccccc2c(=O)[nH]1 | – | > 100 | > 100 | > 100 | > 100 | > 100 | > 100 | > 100 | > 100 | > 100 | > 100 | > 100 | > 100 | > 100 | > 100 | > 100 | > 100 | > 100 | – | > 100
Cc1ccc(/C(O)=C/c2nc3ccccc3nc2NC23CC4CC(CC(C4)C2)C3)cc1 | > 10 | > 10 | > 10 | > 10 | > 10 | > 10 | > 10 | – | – | > 10 | – | > 10 | > 10 | – | > 10 | > 10 | > 10 | > 10 | – | > 10
NS(=O)(=O)c1ccc(NC(=S)/N=C/c2c(O)c3ccccc3[nH]c2=O)cc1 | > 100 | > 100 | > 100 | > 100 | > 100 | > 100 | > 100 | > 100 | > 100 | > 100 | > 100 | > 100 | > 100 | > 100 | > 100 | > 100 | > 100 | > 100 | – | –
CN(O)C(=O)c1ccc(OCc2cccc(Cl)c2)cc1 | > 100 | > 100 | > 100 | > 100 | > 100 | > 51.6 | > 100 | > 100 | > 100 | > 100 | > 100 | > 100 | > 72.4 | > 66.5 | > 100 | > 100 | > 100 | > 100 | > 100 | –
COC(=O)/C=C/COCC1C2CCC(=O)C21 (centres undefined) | > 100 | > 100 | > 100 | > 100 | > 100 | > 100 | > 100 | > 100 | > 100 | > 100 | > 100 | > 100 | > 100 | > 100 | > 100 | > 100 | > 100 | > 100 | – | > 100
COc1ccc(-c2c(C#N)c(N)n(C3OCC(O)C(O)C3O)c(=S)c2C#N)cc1 (centres undefined) | > 100 | > 100 | > 100 | > 100 | > 100 | > 100 | > 100 | > 100 | > 100 | > 100 | – | > 100 | > 100 | > 100 | > 100 | > 100 | > 100 | > 100 | > 100 | > 100
CC(=O)N1c2ccccc2C2=NN=C(N(C)C)SC21 (centres undefined) | 19.3 | 21 | 24.2 | 11.8 | 15.3 | 18.3 | 31.3 | 13.3 | – | – | 12.8 | 23.4 | 21.2 | 9.89 | > 100 | – | – | 19.7 | 11.7 | 12.9
Nc1ccc2c(c1)N(C(=O)CCCC(=O)N1CC(CCl)c3ccc(N)cc31)CC2CCl (centres undefined) | 4.16 | > 48.1 | 6.53 | > 50 | > 14.4 | 11.3 | 3.17 | > 50 | 0.582 | 48.6 | 7.8 | 8.94 | – | 2.74 | > 50 | > 11.3 | 0.689 | 3.82 | 3.47 | 0.451

— PubChem BioAssay (NCI)
